Assay results reported in patent US10519107B2, “Sulfonamide compounds and their use as STAT5 inhibitors” (Governing Council of the University of Toronto, priority 2014, dated 2019).

Experiments:
[1] = target: T1, wildtype STAT5B protein (SH2 domain) (Homo sapiens, UniProt P51692); test: Fluorescence polarization competitive binding, STAT5b; conditions: FP
T1 sequence (P51692 1-787): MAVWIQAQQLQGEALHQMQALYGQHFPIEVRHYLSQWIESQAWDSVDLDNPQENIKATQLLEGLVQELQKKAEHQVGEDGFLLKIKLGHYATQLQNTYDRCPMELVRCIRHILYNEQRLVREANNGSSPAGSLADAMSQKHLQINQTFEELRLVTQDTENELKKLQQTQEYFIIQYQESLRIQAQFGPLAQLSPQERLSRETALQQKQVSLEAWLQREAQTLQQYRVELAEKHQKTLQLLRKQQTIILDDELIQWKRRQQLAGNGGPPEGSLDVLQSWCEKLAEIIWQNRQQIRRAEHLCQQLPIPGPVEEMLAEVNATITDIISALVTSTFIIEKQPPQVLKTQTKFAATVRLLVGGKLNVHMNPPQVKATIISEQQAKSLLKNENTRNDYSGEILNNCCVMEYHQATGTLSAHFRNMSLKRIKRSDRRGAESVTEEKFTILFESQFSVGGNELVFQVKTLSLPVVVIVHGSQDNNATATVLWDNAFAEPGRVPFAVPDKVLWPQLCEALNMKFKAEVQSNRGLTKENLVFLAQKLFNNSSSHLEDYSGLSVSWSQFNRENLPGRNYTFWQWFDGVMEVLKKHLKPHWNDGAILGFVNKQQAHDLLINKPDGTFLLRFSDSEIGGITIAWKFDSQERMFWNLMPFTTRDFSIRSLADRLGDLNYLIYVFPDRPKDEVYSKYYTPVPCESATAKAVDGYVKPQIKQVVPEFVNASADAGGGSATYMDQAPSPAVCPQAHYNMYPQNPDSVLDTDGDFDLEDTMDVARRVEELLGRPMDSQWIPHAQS
Method: Fluorescence assays were performed in flat black 384-well plates (Corning) and fluorescence polarization measurements were taken with the Infinite M1000 machine (Tecan, Crailsheim, Germany). The buffer conditions for all assays were 20 mM HEPES, 50 mM NaCl, 1 mM EDTA, 2 mM dithiothreitol, pH 7.5 and the final DMSO concentration in the wells was kept constant at 10%.
The point at which 80% of the fluoresceinated-phosphopeptide was bound was used as the optimal protein concentration required for the competitive fluorescent polarization assays.
Compounds were titrated at concentrations ranging from 1->60,000 nM and incubated for a further 15 minutes at which point fluorescence polarization measurements were taken in triplicate. The final well concentrations of the fluoresceinated-phosphopeptide and STAT5B were 10 nM and 250 nM, respectively.
The resulting fluorescence polarization measurements were normalized and plotted against compound concentration on a logarithmic scale. The raw data was fitted with a standard dose-normalized response inhibition curve using GraphPad Prism 6 software.
Modified Cheng-Pruskoff equation containing a correction factor for protein concentration.

[2] = tested on: MDA-MB-231 breast cancer cells; test: Cell viability, MDA-MB-231; format: cell-based
Method: Breast carcinoma lines MDA-MB-231 and MDA-MB-468 were grown in dulbecco's modified eagles medium (DMEM) supplemented with 10% FBS (sigma). […] As a control, cells were treated with the DMSO alone.

With CC(C)(C)c1cc(CN(C(=O)CN(Cc2ccc(Cl)cc2)S(=O)(=O)c2c(F)c(F)c(F)c(F)c2F)c2ccc(C(=O)O)c(O)c2)cc(C(C)(C)C)c1 [Compound 13a, 4-(2-((N-(4-chlorobenzyl)-2,3,4,5,6-pentafluorophenyl)sulfonamido)-N-(3,5-di-tert-butylbenzyl)acetamido)-2-hydroxybenzoic Acid] the IC50 ([1]; 5-FAM-GpYLVLDKW 10 nM, STAT5B 250 nM) was 370 nM, the Ki ([1]; converted from IC50 with Equation 1) was 150 nM and the “less cytotoxic in MDA-MB-231 than in high pSTAT5 leukemic cell line” value [2] was 3 fold.
